From US10947227B2, “Tricyclic heterocyclic compounds as sting activators” (Incyte Corporation, priority 2018, dated 2021) come the findings set out here.

For the assay, the system named is IRF3 activation in THP-1 Dual Cells. Put plainly: IRF3 activation assay in THP-1 Dual Cells (QUANTI-Blue readout). The conditions noted are these: Homo sapiens, THP1-Dual, 24 h. It is filed as cell-based. The procedure:
THP-1 Dual Cells (Invivogen) were maintained in RPMI1640 medium with addition of 10% FBS, 100 μg/ml zeocin, 10 μg/ml blasticidin. Cells were added in a 96-well flat bottom assay plate at 100,000 per well in 100 μL complete RPMI medium. Test compounds were prepared by serial dilution in complete RPMI medium and 100 μL test compounds were transferred to each corresponding well. The assay plate was incubated at 37° C., 5% CO2 for 24 hours. After the overnight incubation, 20 μL of the culture supernatants were collected, followed by addition of 180 μL of QUANTI-Blue (Invivogen) to assess IRF3 activity. The amount of IRF3 activation was assessed by reading the absorbance at 620-655 nm with a microplate reader 2 hours later. The culture supernatant from the untreated THP-1 cells was used as the negative control. To determine the NF-κB activation, another 20 μL of culture supernatant were transferred to a 96-well white plate, followed by addition of 50 μL of Quanti-Luc™ assay solution (Invivogen). The amount of NF-κB activation induced by the test compounds were determined by the luminescence above the untreated control. EC50 determination was performed by fitting the curve of percent control activity versus the log of the compound concentration using the GraphPad Prism 6.0 software.

A word on the EC50: it is the concentration that produces a half-maximal response. Read a high EC50 as weaker potency. For `CCn1nc(C)cc1C(=O)Nc1nc2cc(C(N)=O)cc(C)c2n1C/C=C/Cn1c2ccc(C(N)=O)cc2c2cnc(-c3cc(C)nn3CC)nc21` [Example 1, (E)-9-(4-(5-carbamoyl-2-(1-ethyl-3-methyl-1H-pyrazole-5-carboxamido)-7-methyl-1H-benzo[d]imidazol-1-yl)but-2-enyl)-2-(1-ethyl-3-methyl-1H-pyrazol-5-yl)-9H-pyrimido[4,5-b]indole-6-carboxamide], the EC50 was below 1000 nM (Table 1, 24 hours incubation) and 50 to 200 nM (Table 2, 24 hours incubation). On the same counts, the results for `CCn1nc(C)cc1C(=O)Nc1nc2cc(C(N)=O)cc(C)c2n1C/C=C/Cn1c2ccccc2c2cnc(-c3cc(C)nn3CC)nc21` [Example 2, (E)-1-(4-(2-(1-ethyl-3-methyl-1H-pyrazol-5-yl)-9H-pyrimido[4,5-b]indol-9-yl)but-2-enyl)-2-(1-ethyl-3-methyl-1H-pyrazole-5-carboxamido)-7-methyl-1H-benzo[d]imidazole-5-carboxamide] are below 1000 nM and 200 to 500 nM. Turning to `CCn1nc(C)cc1C(=O)Nc1nc2cc(C(N)=O)cc(C)c2n1C/C=C/Cn1c2ccc(C(N)=O)cc2c2cnc(-c3cc(C)nn3C)nc21` [Example 3, (E)-9-(4-(5-carbamoyl-2-(1-ethyl-3-methyl-1H-pyrazole-5-carboxamido)-7-methyl-1H-benzo[d]imidazol-1-yl)but-2-enyl)-2-(1,3-dimethyl-1H-pyrazol-5-yl)-9H-pyrimido[4,5-b]indole-6-carboxamide], the EC50 (Table 1, 24 hours incubation) was below 1000 nM. For the compound `CCn1nc(C)cc1C(=O)Nc1nc2cc(C(N)=O)cc(OC)c2n1C/C=C/Cn1c2ccc(C(N)=O)cc2c2cnc(-c3cc(C)nn3CC)nc21` [Example 4, (E)-9-(4-(5-carbamoyl-2-(1-ethyl-3-methyl-1H-pyrazole-5-carboxamido)-7-methoxy-1H-benzo[d]imidazol-1-yl)but-2-enyl)-2-(1-ethyl-3-methyl-1H-pyrazol-5-yl)-9H-pyrimido[4,5-b]indole-6-carboxamide], the EC50 runs as follows: (Table 1, 24 hours incubation) below 1000 nM; (Table 2, 24 hours incubation) 500 to 1000 nM. The matching figures for `CCn1nc(C)cc1C(=O)Nc1nc2cc(C(N)=O)cc(C)c2n1C/C=C/Cn1c2ccc(C(N)=O)cc2c2ccc(-c3cc(C)nn3CC)nc21` [Example 5, (E)-9-(4-(5-carbamoyl-2-(1-ethyl-3-methyl-1H-pyrazole-5-carboxamido)-7-methyl-1H-benzo[d]imidazol-1-yl)but-2-en-1-yl)-2-(1-ethyl-3-methyl-1H-pyrazol-5-yl)-9H-pyrido[2,3-b]indole-6-carboxamide]: below 1000 nM and 50 to 200 nM. On the same counts, the results for `CCCn1nc(C)cc1-c1ncc2c3cc(C(N)=O)ccc3n(C/C=C/Cn3c(NC(=O)c4cc(C)nn4CC)nc4cc(C(N)=O)cc(C)c43)c2n1` [Example 6, (E)-9-(4-(5-carbamoyl-2-(1-ethyl-3-methyl-1H-pyrazole-5-carboxamido)-7-methyl-1H-benzo[d]imidazol-1-yl)but-2-enyl)-2-(3-methyl-1-propyl-1H-pyrazol-5-yl)-9H-pyrimido[4,5-b]indole-6-carboxamide] are below 200 nM and below 50 nM. For the compound `CCn1nc(C)cc1C(=O)Nc1nc2cc(C(N)=O)cc(C)c2n1C/C=C/Cn1c2ccc(C(N)=O)cc2c2cnc(-c3ccnn3CC)nc21` [Example 7, (E)-9-(4-(5-carbamoyl-2-(1-ethyl-3-methyl-1H-pyrazole-5-carboxamido)-7-methyl-1H-benzo[d]imidazol-1-yl)but-2-enyl)-2-(1-ethyl-1H-pyrazol-5-yl)-9H-pyrimido[4,5-b]indole-6-carboxamide], the EC50 reads like this: (Table 1, 24 hours incubation) below 1000 nM; (Table 2, 24 hours incubation) 200 to 500 nM. The matching figures for `CCc1nn(C)cc1-c1ncc2c3cc(C(N)=O)ccc3n(C/C=C/Cn3c(NC(=O)c4cc(C)nn4CC)nc4cc(C(N)=O)cc(C)c43)c2n1` [Example 8, (E)-9-(4-(5-carbamoyl-2-(1-ethyl-3-methyl-1H-pyrazole-5-carboxamido)-7-methyl-1H-benzo[d]imidazol-1-yl)but-2-enyl)-2-(3-ethyl-1-methyl-1H-pyrazol-4-yl)-9H-pyrimido[4,5-b]indole-6-carboxamide]: below 1000 nM and 500 to 1000 nM. For the compound `CCn1nc(C)cc1C(=O)Nc1nc2cc(C(N)=O)cc(C)c2n1C/C=C/Cn1c2ccc(C(N)=O)cc2c2cnc(-c3cc(C(F)(F)F)nn3CC)nc21` [Example 9, (E)-9-(4-(5-carbamoyl-2-(1-ethyl-3-methyl-1H-pyrazole-5-carboxamido)-7-methyl-1H-benzo[d]imidazol-1-yl)but-2-enyl)-2-(1-ethyl-3-(trifluoromethyl)-1H-pyrazol-5-yl)-9H-pyrimido[4,5-b]indole-6-carboxamide], the EC50 was below 1000 nM (Table 1, 24 hours incubation) and 200 to 500 nM (Table 2, 24 hours incubation).

Regarding `CCn1nc(C)cc1C(=O)Nc1nc2cc(C(N)=O)cc(C)c2n1C/C=C/Cn1c2nc(-c3cc(C)nn3CC)ncc2c2cc(C(N)=O)cc(OC)c21` [Example 10, (E)-9-(4-(5-carbamoyl-2-(1-ethyl-3-methyl-1H-pyrazole-5-carboxamido)-7-methyl-1H-benzo[d]imidazol-1-yl)but-2-enyl)-2-(1-ethyl-3-methyl-1H-pyrazol-5-yl)-8-methoxy-9H-pyrimido[4,5-b]indole-6-carboxamide], the EC50 is below 200 nM (Table 1, 24 hours incubation) and below 50 nM (Table 2, 24 hours incubation). The matching figures for `CCn1nc(C)cc1C(=O)Nc1nc2cc(C(N)=O)cc(C)c2n1C/C=C/Cn1c2nc(-c3cc(C)nn3CC)ncc2c2cc(C(N)=O)cc(OCCCN3CCOCC3)c21` [Example 11, (E)-9-(4-(5-carbamoyl-2-(1-ethyl-3-methyl-1H-pyrazole-5-carboxamido)-7-methyl-1H-benzo[d]imidazol-1-yl)but-2-enyl)-2-(1-ethyl-3-methyl-1H-pyrazol-5-yl)-8-(3-morpholinopropoxy)-9H-pyrimido[4,5-b]indole-6-carboxamide]: below 200 nM and below 50 nM. On the same counts, the results for `CCn1nc(C)cc1C(=O)Nc1nc2cc(C(N)=O)cc(C)c2n1C/C=C/Cn1c2nc(-c3cc(C)nn3CC)ncc2c2cc(C(N)=O)cc(OCCCOC)c21` [Example 12, (E)-9-(4-(5-carbamoyl-2-(1-ethyl-3-methyl-1H-pyrazole-5-carboxamido)-7-methyl-1H-benzo[d]imidazol-1-yl)but-2-enyl)-2-(1-ethyl-3-methyl-1H-pyrazol-5-yl)-8-(3-methoxypropoxy)-9H-pyrimido[4,5-b]indole-6-carboxamide] are below 200 nM and below 50 nM. On the same counts, the results for `CCn1nc(C)cc1C(=O)Nc1nc2cc(C(N)=O)cc(C)c2n1C/C=C/Cn1c2nc(-c3cc(C)nn3CC)ncc2c2cc(C(N)=O)cc(OCCCO)c21` [Example 13, (E)-9-(4-(5-carbamoyl-2-(1-ethyl-3-methyl-1H-pyrazole-5-carboxamido)-7-methyl-1H-benzo[d]imidazol-1-yl)but-2-enyl)-2-(1-ethyl-3-methyl-1H-pyrazol-5-yl)-8-(3-hydroxypropoxy)-9H-pyrimido[4,5-b]indole-6-carboxamide] are below 200 nM and below 50 nM. `CCn1nc(C)cc1C(=O)Nc1nc2cc(C(N)=O)cc(C)c2n1C/C=C/Cn1c2nc(-c3cc(C)nn3CC)ccc2c2cc(C(N)=O)cc(OC)c21` [Example 14, (E)-9-(4-(5-carbamoyl-2-(1-ethyl-3-methyl-1H-pyrazole-5-carboxamido)-7-methyl-1H-benzo[d]imidazol-1-yl)but-2-enyl)-2-(1-ethyl-3-methyl-1H-pyrazol-5-yl)-8-methoxy-9H-pyrido[2,3-b]indole-6-carboxamide]: the EC50 is below 200 nM (Table 1, 24 hours incubation) and below 50 nM (Table 2, 24 hours incubation). The matching figures for `CCn1nc(C)cc1C(=O)Nc1nc2cc(C(N)=O)cc(OCCCOC(=O)c3cc(C)nn3CC)c2n1C/C=C/Cn1c2nc(-c3cc(C)nn3CC)ncc2c2cc(C(N)=O)cc(OC)c21` [Example 15, (E)-3-((5-carbamoyl-1-(4-(6-carbamoyl-2-(1-ethyl-3-methyl-1H-pyrazol-5-yl)-8-methoxy-9H-pyrimido[4,5-b]indol-9-yl)but-2-en-1-yl)-2-(1-ethyl-3-methyl-1H-pyrazole-5-carboxamido)-1H-benzo[d]imidazol-7-yl)oxy)propyl 1-ethyl-3-methyl-1H-pyrazole-5-carboxylate]: below 200 nM and below 50 nM. On the same counts, the results for `CCn1nc(C)cc1C(=O)Nc1nc2cc(C(N)=O)cc(OCCCO)c2n1C/C=C/Cn1c2nc(-c3cc(C)nn3CC)ncc2c2cc(C(N)=O)cc(OC)c21` [Example 16, (E)-9-(4-(5-carbamoyl-2-(1-ethyl-3-methyl-1H-pyrazole-5-carboxamido)-7-(3-hydroxypropoxy)-1H-benzo[d]imidazol-1-yl)but-2-en-1-yl)-2-(1-ethyl-3-methyl-1H-pyrazol-5-yl)-8-methoxy-9H-pyrimido[4,5-b]indole-6-carboxamide] are below 200 nM and below 50 nM. The matching figures for `CCn1nc(C)cc1C(=O)Nc1nc2cc(C(N)=O)cc(OCCCOC(=O)c3cc(C)nn3CC)c2n1C/C=C/Cn1c2ccc(C(N)=O)cc2c2cnc(-c3cc(C)nn3CC)nc21` [Example 17, (E)-3-((5-carbamoyl-1-(4-(6-carbamoyl-2-(1-ethyl-3-methyl-1H-pyrazol-5-yl)-9H-pyrimido[4,5-b]indol-9-yl)but-2-en-1-yl)-2-(1-ethyl-3-methyl-1H-pyrazole-5-carboxamido)-1H-benzo[d]imidazol-7-yl)oxy)propyl 1-ethyl-3-methyl-1H-pyrazole-5-carboxylate]: below 200 nM and below 50 nM.
